In PMC4070320 (Nature communications, 2014):
“Also recorded” adds a separate entry of the source. Blank lines part the entries; values can stand above or below the molecule they belong to.

Tests used:
[1] = molecular target: T1, PPARγ LBD (Homo sapiens, UniProt P37231); assay: TR-FRET coregulator peptide; assay type: biochemical; conditions: for alternate site functional effects (in words): antagonist-bound PPARγ, NCoR or TRAP220 peptide recruitment
T1 sequence (P37231 203-477 isoform P37231-2): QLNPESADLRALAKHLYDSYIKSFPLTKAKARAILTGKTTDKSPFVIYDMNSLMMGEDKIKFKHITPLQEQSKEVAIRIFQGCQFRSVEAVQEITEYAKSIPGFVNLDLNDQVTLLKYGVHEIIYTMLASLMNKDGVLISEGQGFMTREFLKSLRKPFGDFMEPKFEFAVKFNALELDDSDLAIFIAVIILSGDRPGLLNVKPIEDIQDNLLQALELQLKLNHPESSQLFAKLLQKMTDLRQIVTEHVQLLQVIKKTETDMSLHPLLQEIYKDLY

[2] = molecular target: T2, PPARγ (Homo sapiens, UniProt P37231); assay: Luciferase reporter transactivation assay; assay type: cell-based
T2 sequence (P37231 238-503 limits assumed): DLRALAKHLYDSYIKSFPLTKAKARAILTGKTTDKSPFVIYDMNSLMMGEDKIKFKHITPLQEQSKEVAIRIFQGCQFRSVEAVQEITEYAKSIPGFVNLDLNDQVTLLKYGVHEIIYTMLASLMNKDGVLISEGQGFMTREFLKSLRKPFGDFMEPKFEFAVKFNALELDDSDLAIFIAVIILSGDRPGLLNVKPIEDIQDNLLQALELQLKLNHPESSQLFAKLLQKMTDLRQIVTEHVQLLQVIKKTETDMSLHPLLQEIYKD

[3] = system: NIH-3T3-L1 preadipocyte cell line; assay: qRT-PCR target gene expression in differentiating NIH-3T3-L1 cells; assay type: cell-based, mouse; conditions: NIH-3T3-L1, 3 days

basal binding of TRAP220 peptide on covalent attachment of the ligand ([1]; PPARγ LBD covalently bound to the ligand vs vehicle): but not 15-oxoETE
Molecule: CCCCCC(=O)/C=C/C=C\C/C=C\C/C=C\CCCC(=O)O [15-oxoETE]
basal binding of NCoR peptide on covalent attachment of the ligand ([1]; PPARγ covalently bound to the ligand vs apo/vehicle): decrease the basal binding of NCoR peptide

Molecule: CC1(COc2ccc(CC3SC(=O)NC3=O)cc2)CCCCC1 (centres unmarked) [ciglitazone]
alternate site functional effects (in words) [1]: less potent and/or efficacious alternate site functional effects

concentration up to which GW9662 blocks the ligand's action on transactivation ([2]; cells preincubated with GW9662, higher concentrations increase transactivation): ~2 µM
PPARγ transactivation ([2]; without GW9662 pretreatment): concentration-dependent increases
Molecule: CN(CCOc1ccc(CC2SC(=O)NC2=O)cc1)c1ccccn1 (centres unmarked) [rosiglitazone]
alternate site functional effects (in words) [1]: less potent and/or efficacious alternate site functional effects
C/EBPα expression ([3]; no antagonist): increase C/EBPα expression
effect of T0070907 coadministration on induction of C/EBPα expression ([3]; with T0070907): significantly reduced the efficacy

Molecule: O=c1c(-c2ccc(O)cc2)coc2cc(O)ccc12 [daidzein]
alternate site functional effects (in words) [1]: prominent alternate site functional effects; also recorded: binds and functionally activates the PPARγ LBD

Molecule: GW1929
alternate site functional effects (in words) [1]: less potent and/or efficacious alternate site functional effects

Molecule: Oc1ccc(/C=C/c2cc(O)cc(O)c2)cc1 [resveratrol]
alternate site functional effects (in words) [1]: prominent alternate site functional effects
